From paper PMC9780857 (International Journal of Molecular Sciences, 2022)
Values after ≈ are worked out from the molar mass of the structure shown. Values joined by “and” are separate entries in the source; they are usually repeats but may differ in a detail not shown here. Identical values can stand only once. “Also recorded” adds a separate entry of the source. Like-named read-outs stand apart in the source and are kept apart here. Values belong to the compound of their own block, whether it stands above or below them.

Tests used:
hOCT2 [1] = target: T1, hOCT2 (Homo sapiens, UniProt O15244); parameters: expressed in transfected cells; host or cells: HEK293 (stably transfected); settings: cited from earlier work
T1 sequence (O15244 1-555): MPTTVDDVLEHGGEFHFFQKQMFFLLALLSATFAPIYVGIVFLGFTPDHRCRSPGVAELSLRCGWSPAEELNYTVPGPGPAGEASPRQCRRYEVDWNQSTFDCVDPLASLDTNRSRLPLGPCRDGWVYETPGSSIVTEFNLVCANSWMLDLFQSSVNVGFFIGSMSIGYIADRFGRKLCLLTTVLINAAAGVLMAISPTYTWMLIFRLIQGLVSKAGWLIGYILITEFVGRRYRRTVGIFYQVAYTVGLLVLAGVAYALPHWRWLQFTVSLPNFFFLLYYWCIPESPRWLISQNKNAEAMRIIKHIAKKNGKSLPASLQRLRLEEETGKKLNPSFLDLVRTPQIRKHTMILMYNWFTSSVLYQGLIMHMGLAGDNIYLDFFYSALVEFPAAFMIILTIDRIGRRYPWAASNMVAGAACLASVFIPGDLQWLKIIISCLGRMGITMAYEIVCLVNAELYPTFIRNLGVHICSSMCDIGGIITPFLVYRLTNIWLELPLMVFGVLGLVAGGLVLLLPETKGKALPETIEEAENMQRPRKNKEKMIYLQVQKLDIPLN

hOCT2 [2] = target: T1, hOCT2; test: Inhibition of hOCT2-mediated 14C-metformin uptake in transfected HEK293 cells; assay type: cell-based; parameters: expressed in transfected cells; host or cells: HEK293 (stably transfected); settings: for Inhibitory Effects (%) hOCT2 10 µM Mean: 10 µM test compound; for inhibition at 10 µM: read-out: Inhibitory Effects (%) hOCT2 10 µM Mean; for inhibition at 100 µM: read-out: Inhibitory Effects (%) hOCT2 100 µM Mean
Protocol: (§1) The uptake assays were performed as previously described in 24-well plates. […] After incubation, the uptake was stopped by aspirating the reaction mixture and washing the cells three times with 0.4 mL ice-cold PBS buffer. Cells were then solubilized with 0.6 mL of 1 N NaOH, overnight. The whole content of each well (0.6 mL) was transferred to a scintillation vial (Perkin Elmer). The radio-labelled amount was determined by liquid scintillation counting.
(§2) All inhibition experiments were conducted on at least two separate days in triplicate.
(§3) For screening experiments, cis-inhibition was carried out in duplicate by measuring the uptake of the labeled probe substrate in the absence and presence of 10 µM or 100 µM of the respective pesticide or drug. […] Inhibitory effects in percent were calculated from net-uptake. […]

hOCT2 [3] = target: T1, hOCT2; settings: read-out: IC50, hOCT2-mediated metformin uptake; cited from earlier work
mOct2 [4] = target: T2, mOct2 (Mus musculus, UniProt O70577); test: Inhibition of mOct2-mediated 14C-metformin uptake in transfected HEK293 cells; assay type: cell-based; parameters: expressed in transfected cells; host or cells: HEK293 (stably transfected); settings: for Inhibitory Effects (%) mOct2 10 µM Mean: 10 µM test compound; for inhibition at 10 µM: read-out: Inhibitory Effects (%) mOct2 10 µM Mean; for inhibition at 100 µM: read-out: Inhibitory Effects (%) mOct2 100 µM Mean
T2 sequence (O70577 1-553): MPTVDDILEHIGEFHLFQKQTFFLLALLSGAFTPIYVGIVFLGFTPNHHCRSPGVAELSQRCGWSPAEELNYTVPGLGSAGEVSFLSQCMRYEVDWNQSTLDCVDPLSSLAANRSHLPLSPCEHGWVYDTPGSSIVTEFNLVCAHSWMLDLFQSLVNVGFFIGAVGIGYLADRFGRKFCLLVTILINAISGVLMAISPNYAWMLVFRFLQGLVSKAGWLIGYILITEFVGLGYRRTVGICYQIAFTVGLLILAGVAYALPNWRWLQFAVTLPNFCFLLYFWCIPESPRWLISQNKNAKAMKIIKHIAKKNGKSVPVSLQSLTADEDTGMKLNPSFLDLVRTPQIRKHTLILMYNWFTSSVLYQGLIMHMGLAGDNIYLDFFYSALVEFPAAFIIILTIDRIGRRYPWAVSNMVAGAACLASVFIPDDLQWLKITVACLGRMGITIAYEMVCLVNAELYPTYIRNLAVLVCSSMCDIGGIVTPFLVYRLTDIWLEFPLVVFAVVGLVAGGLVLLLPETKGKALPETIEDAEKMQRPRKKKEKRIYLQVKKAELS
Protocol: as §1, §2, §3

hOCT2 [5] = target: T1, hOCT2; test: Inhibition of hOCT2-mediated 3H-MPP uptake in transfected HEK293 cells; assay type: cell-based; parameters: expressed in transfected cells; host or cells: HEK293 (stably transfected)
Protocol: (§4) With cDNA of hOCT2 (GeneBank: accession number: NM_003058.3) or mOct2 (NM_013667.2), stably overexpressing HEK293 cells were used for the experiments and empty vector-transfected HEK cells were used as control-HEK cells.
(§5) The uptake assays were performed as previously described in 24-well plates. Therefore, culture medium was aspirated, and each well was rinsed three times with 0.5 mL incubation buffer (HBSS supplemented with 20 mM HEPES, pH 7.4) and then incubated in 200 µL dosing solution containing ^3H-MPP or ^14C-metformin and the test compound. After incubation, the uptake was stopped by aspirating the reaction mixture and washing the cells three times with 0.4 mL ice-cold PBS buffer. Cells were then solubilized with 0.6 mL of 1 N NaOH, overnight. The whole content of each well (0.6 mL) was transferred to a scintillation vial (Perkin Elmer). The radio-labelled amount was determined by liquid scintillation counting.
(§6) […]. All inhibition experiments were conducted on at least two separate days in triplicate.
(§7) The Km and Vmax values were obtained using SigmaPlot version 13 by fitting the Michaelis–Menten equation V = Vmax*[S]/(Km + [S]), where V refers to the rate of substrate transport, Vmax refers to the maximum rate of substrate transport, [S] refers to the concentration of substrate, and Km is defined as the concentration of substrate at the half-maximal transport rate.

mOct2 [6] = target: T2, mOct2; test: Inhibition of mOct2-mediated 3H-MPP uptake in transfected HEK293 cells; assay type: cell-based; parameters: expressed in transfected cells; host or cells: HEK293 (stably transfected)
Protocol: as §4, §5, §6, §7

hOCT2 [7] = target: T1, hOCT2; parameters: method as in PMID 9260930; settings: OCT2-overexpressing oocytes (procainamid); read-out: IC50, hOCT2-mediated TEA uptake; cited from earlier work
[8] = Highest soluble concentration in assay buffer (determined visually); assay type: physicochemical; settings: assay buffer (HBSS/HEPES), aqueous buffer, HBSS/HEPES pH 7.4
hOCT2 [9] = target: T1, hOCT2; parameters: expressed in transfected cells; host or cells: HEK293 (stably transfected); method as in ref 39 (Vermeer et al.); settings: ref 39 (Vermeer et al.); cited from earlier work
[10] = 1 µM [14C]metformin, 2 min, HEK293, negative = stimulation
[11] = HEK293, 10 µM test compound, 1 µM [14C]metformin, 2 min, HEK293, negative = stimulation
[12] = HEK293, 100 µM test compound, 1 µM [14C]metformin, 2 min, HEK293, negative = stimulation
[13] = 100 µM test compound, 1 µM [14C]metformin, 2 min, HEK293, negative = stimulation
[14] = up to 100 µM (highest soluble concentration)

Inhibitory Effects (%) hOCT2 10 µM Mean (hOCT2 [2]; [10]): 40% | inhibition at 10 µM (hOCT2 [2]; [11]): 60% | inhibition at 100 µM (hOCT2 [2]; [12]): 76% | Inhibitory Effects (%) mOct2 10 µM Mean (mOct2 [4]; [10]): 54% | inhibition at 10 µM (mOct2 [4]; [11]): 46% | inhibition at 100 µM (mOct2 [4]; [12]): 89%
Compound: Clc1cccc(Cl)c1N=C1NCCN1 [Clonidine]
IC50 (hOCT2 [1]; read-out: IC50, hOCT2-mediated MPP uptake): 6 µM | IC50 (hOCT2 [3]): 0.68 µM

Fold higher IC50 for hOCT2 than for mOct2 (hOCT2 [5]; MPP as substrate): 2 fold and 2.3 fold | IC50 (hOCT2 [5]; read-out: IC50, hOCT2-mediated MPP uptake, control inhibitor, MPP at its Km, 0.1-100 µM inhibitor): 16 µM | IC50 (mOct2 [6]; read-out: IC50, mOct2-mediated MPP uptake, control inhibitor, MPP at its Km, 0.1-100 µM inhibitor): 6.9 µM | Fold higher inhibitory potential on metformin uptake compared to MPP uptake, hOCT2 (hOCT2 [2]): 7.2 fold | Inhibitory Effects (%) hOCT2 10 µM Mean (hOCT2 [2]; [10]): 67% | Inhibitory Effects (%) hOCT2 100 µM Mean (hOCT2 [2]; [13]): 96% | IC50 (hOCT2 [2]; read-out: IC50, hOCT2-mediated metformin uptake, control inhibitor, 350 µM metformin, 0.1-100 µM inhibitor): 2.2 µM | Fold higher inhibitory potential on metformin uptake compared to MPP uptake, mOct2 (mOct2 [4]): 2.7 fold | Inhibitory Effects (%) mOct2 10 µM Mean (mOct2 [4]; [10]): 72% | Inhibitory Effects (%) mOct2 100 µM Mean (mOct2 [4]; [13]): 97% | IC50 (mOct2 [4]; read-out: IC50, mOct2-mediated metformin uptake, control inhibitor, 350 µM metformin, 0.1-100 µM inhibitor): 2.6 µM
Compound: CCN1/C(=C/c2ccc3ccccc3[n+]2CC)C=Cc2ccccc21.[I-] [Decynium22]
IC50 (hOCT2 [1]; read-out: IC50, MPP uptake in hOCT2-HEK293 cells, HEK293, ref 28 (Hayer-Zillgen et al. 2002)): 1.3 µM | IC50 (hOCT2 [7]): 0.1 µM

Maximum inhibition of hOCT2-mediated MPP uptake (hOCT2 [5]; [14]): ≤ 60% | Maximum inhibition of mOct2-mediated MPP uptake (mOct2 [6]; [14]): ≤ 60% | IC50 (hOCT2 [2]): 20 µM | inhibition at 10 µM (hOCT2 [2]; HEK293): 25% | inhibition at 100 µM (hOCT2 [2]; HEK293): 65% | solubility [8]: 100 µM (≈ 56.4 µg/mL) | IC50 (mOct2 [4]): 1.9 µM | inhibition at 10 µM (mOct2 [4]; HEK293): 56% | inhibition at 100 µM (mOct2 [4]; HEK293): 81% | Fold higher inhibitory potency to mouse than to human OCT2 (IC50 ratio) (mOct2 [4]; metformin as substrate): 10 fold
Compound: COc1cc2c(cc1OC)CN(CCc1ccc(NC(=O)c3cccc4c(=O)c5cccc(OC)c5[nH]c34)cc1)CC2 [Elacridar]
IC50, hOCT2-mediated MPP uptake (hOCT2 [5]; 2 nM [3H]MPP): no IC50 value could be determined; also recorded: calculation of an IC50 value was not possible | IC50, mOct2-mediated MPP uptake (mOct2 [6]; 2 nM [3H]MPP): no IC50 value could be determined; also recorded: calculation of an IC50 value was not possible

Compound: CC(=O)N1CCN(c2ccc(OCC3COC(Cn4ccnc4)(c4ccc(Cl)cc4Cl)O3)cc2)CC1 (centres unmarked) [Ketoconazole]
inhibition at 10 µM (hOCT2 [2]; [11]): 31% | inhibition at 100 µM (hOCT2 [2]; [12]): 87% | IC50 (hOCT2 [9]): 0.89 µM | inhibition at 10 µM (mOct2 [4]; HEK293): 49% | inhibition at 100 µM (mOct2 [4]; HEK293): 87%
